# Measured values from publication doi:10.1101/2024.08.13.607785v1 (biorxiv, 2024).
# What was measured:
# Set-up in all cases: species or system mixed lysate of K562, MV4-11, THP-1, NCI-H1155
# [1] = target: Ephrin type-A receptor 1 ; EPHA1 ; P21709 (Homo sapiens, UniProt P21709); settings: DIA-MS residual binding; binder
# [2] = target: T1, Ephrin type-B receptor 1 ; EPHB1 ; P54762 (Homo sapiens, UniProt P54762); settings: DIA-MS residual binding; binder
# T1 sequence (P54762 1-984): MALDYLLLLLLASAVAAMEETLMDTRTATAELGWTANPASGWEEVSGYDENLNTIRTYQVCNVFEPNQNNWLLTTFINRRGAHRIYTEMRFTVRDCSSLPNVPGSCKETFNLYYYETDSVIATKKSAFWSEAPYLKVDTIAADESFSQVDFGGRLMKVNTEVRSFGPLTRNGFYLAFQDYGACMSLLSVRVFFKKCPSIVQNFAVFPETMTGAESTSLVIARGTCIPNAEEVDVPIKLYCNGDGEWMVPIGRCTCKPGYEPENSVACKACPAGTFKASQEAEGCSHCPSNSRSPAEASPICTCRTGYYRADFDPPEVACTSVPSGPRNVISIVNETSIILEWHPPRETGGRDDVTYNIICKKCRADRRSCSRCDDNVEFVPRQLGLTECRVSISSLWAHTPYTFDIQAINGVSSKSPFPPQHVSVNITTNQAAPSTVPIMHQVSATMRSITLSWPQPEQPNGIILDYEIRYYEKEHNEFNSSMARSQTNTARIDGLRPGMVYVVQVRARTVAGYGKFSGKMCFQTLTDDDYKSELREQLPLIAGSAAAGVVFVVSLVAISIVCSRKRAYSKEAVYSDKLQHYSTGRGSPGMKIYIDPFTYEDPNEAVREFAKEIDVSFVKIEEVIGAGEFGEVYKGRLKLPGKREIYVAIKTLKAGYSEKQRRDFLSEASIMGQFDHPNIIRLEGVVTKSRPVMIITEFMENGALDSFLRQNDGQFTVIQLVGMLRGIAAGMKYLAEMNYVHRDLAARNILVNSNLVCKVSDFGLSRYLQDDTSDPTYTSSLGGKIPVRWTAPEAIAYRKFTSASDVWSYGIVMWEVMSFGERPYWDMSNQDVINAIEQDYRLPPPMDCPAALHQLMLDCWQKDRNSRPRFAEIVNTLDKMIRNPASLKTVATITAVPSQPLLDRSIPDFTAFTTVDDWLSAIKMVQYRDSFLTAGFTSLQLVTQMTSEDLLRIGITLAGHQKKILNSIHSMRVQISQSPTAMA
# [3] = target: Integrin-linked protein kinase ; ILK ; Q13418 (Homo sapiens, UniProt Q13418); settings: DIA-MS residual binding; binder
# [4] = target: Isoform 2 of Tyrosine-protein kinase Lyn ; LYN-2 ; P07948-2 (Homo sapiens, UniProt P07948); settings: DIA-MS residual binding; binder
# [5] = target: Isoform 4 of Serine/threonine-protein kinase SIK3 ; SIK3-8 ; Q9Y2K2-8 (Homo sapiens, UniProt Q9Y2K2); settings: DIA-MS residual binding; binder
# [6] = target: LIM domain kinase 1 ; LIMK1 ; P53667 (Homo sapiens, UniProt P53667); settings: DIA-MS residual binding; binder
# [7] = target: MAP kinase-interacting serine/threonine-protein kinase 1 ; MKNK1 ; Q9BUB5 (Homo sapiens, UniProt Q9BUB5); settings: binder
# [8] = target: Mitogen-activated protein kinase kinase kinase kinase 5 ; MAP4K5 ; Q9Y4K4 (Homo sapiens, UniProt Q9Y4K4); settings: DIA-MS residual binding; binder
# [9] = target: Receptor-interacting serine/threonine-protein kinase 2 ; RIPK2 ; O43353 (Homo sapiens, UniProt O43353); settings: DIA-MS residual binding; binder
# [10] = target: Serine/threonine-protein kinase 25 ; STK25 ; O00506 (Homo sapiens, UniProt O00506); settings: binder
# [11] = target: Serine/threonine-protein kinase LMTK2 ; LMTK2 ; Q8IWU2 (Homo sapiens, UniProt Q8IWU2); settings: DIA-MS residual binding; binder
# [12] = target: Tyrosine-protein kinase CSK ; CSK ; P41240 (Homo sapiens, UniProt P41240); settings: binder
# [13] = target: Tyrosine-protein kinase FRK ; FRK ; P42685 (Homo sapiens, UniProt P42685); settings: DIA-MS residual binding; binder
# Chain of Isoform 2 of Tyrosine-protein kinase Lyn ; LYN-2 ; P07948-2 (P07948 whole entry, canonical isoform): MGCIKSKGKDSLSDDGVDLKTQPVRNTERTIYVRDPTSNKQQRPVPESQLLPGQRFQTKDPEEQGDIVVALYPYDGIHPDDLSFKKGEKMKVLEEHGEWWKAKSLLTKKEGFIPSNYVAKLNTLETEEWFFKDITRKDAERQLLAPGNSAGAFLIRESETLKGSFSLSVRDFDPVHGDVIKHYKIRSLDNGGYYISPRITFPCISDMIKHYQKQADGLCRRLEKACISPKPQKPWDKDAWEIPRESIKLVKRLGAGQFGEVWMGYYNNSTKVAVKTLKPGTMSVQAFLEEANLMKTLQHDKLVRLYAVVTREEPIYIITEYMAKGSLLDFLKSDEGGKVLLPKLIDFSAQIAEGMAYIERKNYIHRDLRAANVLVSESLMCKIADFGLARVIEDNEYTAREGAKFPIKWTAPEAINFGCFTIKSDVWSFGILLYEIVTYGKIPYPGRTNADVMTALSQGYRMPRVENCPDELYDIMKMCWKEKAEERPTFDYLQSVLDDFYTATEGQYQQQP
# Chain of Mitogen-activated protein kinase kinase kinase kinase 5 ; MAP4K5 ; Q9Y4K4 (Q9Y4K4 whole entry): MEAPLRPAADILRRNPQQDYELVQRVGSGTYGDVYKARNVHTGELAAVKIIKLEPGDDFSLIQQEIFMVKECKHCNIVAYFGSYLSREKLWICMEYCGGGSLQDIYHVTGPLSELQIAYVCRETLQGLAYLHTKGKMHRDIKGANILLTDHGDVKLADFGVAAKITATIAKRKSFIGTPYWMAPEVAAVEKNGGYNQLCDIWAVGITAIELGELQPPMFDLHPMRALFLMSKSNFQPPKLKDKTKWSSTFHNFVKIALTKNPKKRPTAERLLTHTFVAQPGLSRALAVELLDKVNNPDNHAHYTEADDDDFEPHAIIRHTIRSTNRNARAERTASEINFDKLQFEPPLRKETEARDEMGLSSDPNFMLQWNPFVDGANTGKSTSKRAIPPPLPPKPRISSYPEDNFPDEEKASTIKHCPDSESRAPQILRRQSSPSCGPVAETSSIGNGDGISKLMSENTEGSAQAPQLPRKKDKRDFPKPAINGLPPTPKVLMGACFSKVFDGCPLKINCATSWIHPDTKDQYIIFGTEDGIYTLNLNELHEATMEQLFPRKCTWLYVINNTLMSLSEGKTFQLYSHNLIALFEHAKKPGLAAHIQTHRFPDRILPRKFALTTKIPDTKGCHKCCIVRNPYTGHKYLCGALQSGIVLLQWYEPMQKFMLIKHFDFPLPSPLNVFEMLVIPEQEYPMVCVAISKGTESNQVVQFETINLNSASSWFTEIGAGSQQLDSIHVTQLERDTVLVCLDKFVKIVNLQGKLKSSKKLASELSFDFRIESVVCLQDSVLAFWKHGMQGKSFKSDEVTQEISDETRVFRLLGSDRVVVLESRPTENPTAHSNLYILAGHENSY
# Chain of Tyrosine-protein kinase CSK ; CSK ; P41240 (P41240 whole entry): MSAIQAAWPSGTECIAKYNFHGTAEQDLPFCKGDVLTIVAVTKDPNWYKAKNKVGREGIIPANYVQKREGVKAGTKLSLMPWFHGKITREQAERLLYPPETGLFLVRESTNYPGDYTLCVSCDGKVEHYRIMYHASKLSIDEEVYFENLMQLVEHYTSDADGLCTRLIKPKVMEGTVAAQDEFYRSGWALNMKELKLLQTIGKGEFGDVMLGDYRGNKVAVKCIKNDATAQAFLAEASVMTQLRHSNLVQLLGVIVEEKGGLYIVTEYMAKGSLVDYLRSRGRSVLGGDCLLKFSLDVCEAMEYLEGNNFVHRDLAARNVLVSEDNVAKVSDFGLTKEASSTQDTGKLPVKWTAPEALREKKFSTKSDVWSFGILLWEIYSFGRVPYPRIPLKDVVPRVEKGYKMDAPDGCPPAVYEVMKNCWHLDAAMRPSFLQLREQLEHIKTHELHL
# Chain of Receptor-interacting serine/threonine-protein kinase 2 ; RIPK2 ; O43353 (O43353 whole entry, one chain of several): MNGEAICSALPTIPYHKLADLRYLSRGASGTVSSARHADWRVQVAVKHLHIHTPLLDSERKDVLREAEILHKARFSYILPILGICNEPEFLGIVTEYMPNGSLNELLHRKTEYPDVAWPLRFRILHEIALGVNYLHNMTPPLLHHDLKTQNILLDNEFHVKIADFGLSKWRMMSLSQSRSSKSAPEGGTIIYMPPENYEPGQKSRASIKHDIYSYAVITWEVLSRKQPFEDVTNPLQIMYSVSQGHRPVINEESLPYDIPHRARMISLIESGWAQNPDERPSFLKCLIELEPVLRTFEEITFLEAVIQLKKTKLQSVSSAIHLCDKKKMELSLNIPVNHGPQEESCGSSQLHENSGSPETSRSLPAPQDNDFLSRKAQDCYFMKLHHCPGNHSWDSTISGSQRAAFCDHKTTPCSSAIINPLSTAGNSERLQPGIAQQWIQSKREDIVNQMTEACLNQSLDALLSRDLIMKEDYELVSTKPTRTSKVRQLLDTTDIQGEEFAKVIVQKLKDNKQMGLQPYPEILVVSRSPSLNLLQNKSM
# Chain of MAP kinase-interacting serine/threonine-protein kinase 1 ; MKNK1 ; Q9BUB5 (Q9BUB5 whole entry, one chain of several): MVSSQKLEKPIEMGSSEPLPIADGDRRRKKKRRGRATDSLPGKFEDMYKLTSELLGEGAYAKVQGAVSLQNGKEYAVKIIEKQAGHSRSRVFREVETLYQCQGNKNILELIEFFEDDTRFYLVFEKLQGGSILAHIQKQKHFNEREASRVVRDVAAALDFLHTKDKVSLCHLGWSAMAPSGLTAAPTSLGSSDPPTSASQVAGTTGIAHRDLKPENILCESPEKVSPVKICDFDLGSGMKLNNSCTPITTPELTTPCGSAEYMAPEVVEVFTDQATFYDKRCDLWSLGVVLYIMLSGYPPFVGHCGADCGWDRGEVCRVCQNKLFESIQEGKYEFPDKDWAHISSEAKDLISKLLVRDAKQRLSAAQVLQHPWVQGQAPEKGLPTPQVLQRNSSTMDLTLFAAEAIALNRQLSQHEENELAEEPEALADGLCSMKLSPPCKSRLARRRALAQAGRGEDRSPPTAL
# Chain of Ephrin type-A receptor 1 ; EPHA1 ; P21709 (P21709 whole entry): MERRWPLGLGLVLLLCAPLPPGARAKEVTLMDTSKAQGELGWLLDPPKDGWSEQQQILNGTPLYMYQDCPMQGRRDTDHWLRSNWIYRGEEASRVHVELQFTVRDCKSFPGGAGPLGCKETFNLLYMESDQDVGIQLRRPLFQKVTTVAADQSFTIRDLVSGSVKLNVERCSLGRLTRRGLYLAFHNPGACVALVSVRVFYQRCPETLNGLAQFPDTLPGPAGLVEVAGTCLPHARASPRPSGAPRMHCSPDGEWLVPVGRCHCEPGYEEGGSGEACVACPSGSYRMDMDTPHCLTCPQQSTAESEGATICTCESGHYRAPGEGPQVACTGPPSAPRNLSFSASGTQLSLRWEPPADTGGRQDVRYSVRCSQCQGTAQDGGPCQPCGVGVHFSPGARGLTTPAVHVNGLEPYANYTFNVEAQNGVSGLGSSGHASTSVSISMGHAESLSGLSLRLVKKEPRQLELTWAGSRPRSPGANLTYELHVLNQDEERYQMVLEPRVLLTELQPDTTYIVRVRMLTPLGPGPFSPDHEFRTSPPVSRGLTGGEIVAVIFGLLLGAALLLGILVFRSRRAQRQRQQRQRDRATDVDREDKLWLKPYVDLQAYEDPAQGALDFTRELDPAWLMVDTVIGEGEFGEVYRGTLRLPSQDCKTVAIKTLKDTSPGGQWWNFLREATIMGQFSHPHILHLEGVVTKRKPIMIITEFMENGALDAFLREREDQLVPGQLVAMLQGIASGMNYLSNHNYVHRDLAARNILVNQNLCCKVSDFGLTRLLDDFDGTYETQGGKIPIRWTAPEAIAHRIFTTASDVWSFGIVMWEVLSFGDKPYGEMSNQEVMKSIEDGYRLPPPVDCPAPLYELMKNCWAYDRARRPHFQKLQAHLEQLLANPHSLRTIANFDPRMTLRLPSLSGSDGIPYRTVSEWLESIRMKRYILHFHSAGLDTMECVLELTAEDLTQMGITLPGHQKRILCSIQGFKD
# Chain of Integrin-linked protein kinase ; ILK ; Q13418 (Q13418 whole entry, canonical isoform): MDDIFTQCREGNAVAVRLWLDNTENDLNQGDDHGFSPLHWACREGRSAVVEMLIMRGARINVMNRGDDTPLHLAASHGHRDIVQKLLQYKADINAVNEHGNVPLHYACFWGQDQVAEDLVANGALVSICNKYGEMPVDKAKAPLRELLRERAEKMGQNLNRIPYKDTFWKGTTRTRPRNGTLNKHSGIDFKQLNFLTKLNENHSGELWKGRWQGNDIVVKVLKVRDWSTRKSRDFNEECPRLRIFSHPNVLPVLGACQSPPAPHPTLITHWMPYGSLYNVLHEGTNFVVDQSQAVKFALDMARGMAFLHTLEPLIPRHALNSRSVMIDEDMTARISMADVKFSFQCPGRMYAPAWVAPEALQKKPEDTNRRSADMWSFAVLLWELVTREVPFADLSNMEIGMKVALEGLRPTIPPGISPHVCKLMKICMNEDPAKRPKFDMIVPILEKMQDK
# Chain of Serine/threonine-protein kinase 25 ; STK25 ; O00506 (O00506 whole entry, one chain of several): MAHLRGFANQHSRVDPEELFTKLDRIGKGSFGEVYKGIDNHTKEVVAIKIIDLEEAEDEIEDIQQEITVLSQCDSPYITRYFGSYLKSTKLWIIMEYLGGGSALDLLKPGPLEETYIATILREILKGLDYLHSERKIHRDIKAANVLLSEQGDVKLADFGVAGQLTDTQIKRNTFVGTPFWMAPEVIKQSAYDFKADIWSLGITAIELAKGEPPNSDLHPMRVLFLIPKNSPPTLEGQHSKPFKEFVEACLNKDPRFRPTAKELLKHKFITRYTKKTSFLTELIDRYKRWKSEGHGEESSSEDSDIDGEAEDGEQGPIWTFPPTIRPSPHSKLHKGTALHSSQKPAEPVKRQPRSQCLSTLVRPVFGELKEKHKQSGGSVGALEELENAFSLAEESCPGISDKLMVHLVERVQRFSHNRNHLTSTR
compound,measurement,setting,value
Cc1nc(Nc2ncc(C(=O)Nc3c(C)cccc3Cl)s2)cc(N2CCN(CCO)CC2)n1 [dasatinib],DIA-MS / % Intensity (30 µM/DMSO),[1],39.55%
same,DIA-MS / % Intensity (30 µM/DMSO),[2],6.728%
same,DIA-MS / % Intensity (30 µM/DMSO),[3],38.96%
same,DIA-MS / % Intensity (30 µM/DMSO),[4],1.98%
same,DIA-MS / % Intensity (30 µM/DMSO),[5],10.64%
same,DIA-MS / % Intensity (30 µM/DMSO),[6],33.27%
same,DIA-MS / % Intensity (30 µM/DMSO),[7],27.84%
same,DIA-MS / % Intensity (30 µM/DMSO),[8],28.36%
same,DIA-MS / % Intensity (30 µM/DMSO),[9],2.357%
same,DIA-MS / % Intensity (30 µM/DMSO),[10],52%
same,DIA-MS / % Intensity (30 µM/DMSO),[11],9.818%
same,DIA-MS / % Intensity (30 µM/DMSO),[12],0.9845%
same,DIA-MS / % Intensity (30 µM/DMSO),[13],2.249%
